Measured values published in patent publication US20060134119A1, “Drugs containing galectin 9” (priority 2003, published 2006).

Tests used:
[1] = system: CD4+ T cells; experiment: Apoptosis induction in peripheral blood CD4+ T cells, resting or anti-CD3 Ab-activated; assay type: cell-based, human; conditions: galectin (+), 1 μM rGal-9
Method: (§1) To prepare a well plate coated with anti-CD3 Ab, 24 well palates were incubated with TBS solution (pH 8.0) containing 3 μg/mL anti-CD3 Ab (Inmunotech, Marseille, France) per well at 4° C. overnight, and each well was washed with PBS after removing anti-CD3 Ab solution.
(§2) Mononuclear leukocyte fractions were isolated from heparinized blood using HISTOPAQUE (Registered trademark, SIGMA). CD4-Positive Isolation Kit (DYNAL, Oslo, Norway) was used for isolation of CD4+ T cells and Dynabeads M-450 CD8 (Registered trademark, DYNAL, Oslo, Norway) for isolation of CD8+ T cells, respectively, according to the manufacturer's instructions.
(§3) To activate T cells, CD4+ or CD8+ cells at 1×10^6 cells/mL in an RPMI-1640 medium containing 10% FCS were incubated on the plate coated with anti-CD3 Ab for 20 to 24 hr at 37° C. in a 5% CO2 incubator, and incubated with rGal-9 [(His)6-Gal-9(S)] at 37° C. in a 5% CO2 incubator. Then apoptosis assay was conducted as described in (c). That is, cells were incubated with 50 μg/mL PI (SIGMA) at 37° C. for 10 min in the dark. Stained cells were analyzed by flow cytometry (Sandstrom, K. et al., J Immunol Methods, 240: 55 (2000) and Zhang L. et al., Cancer Lett, 142: 129 (1999)).
(§4) Apoptosis assay was also conducted for non-activated (resting) T cells as described above after incubating them with rGal-9 [(His)6-Gal-9(S)] at 37° C. in a 5% Co2 incubator.
(§5) For comparison, galectin-1 and -3 treated cells were analyzed.
(§6) Next, apoptosis induction by Gal-9 in human peripheral blood T cells was examined. T cells were separated into CD4+ and CD8+ T cells followed by incubation in the presence or absence of anti-CD3 Ab. Resting T cells and anti-CD3 Ab-activated T cells were incubated with 1 μM rGal-9.

[2] = system: Jurkat T cells; conditions: 16 hr incubation with 1 mM galectin-9, PI, FACS
Method: (§7) Cytotoxicities in Jurkat T cells, K-562 leukemic cells, and normal lymphocytes were measured by flow cytometry analysis using PI. That is, PI invades into the damaged target cells when PI is added for the last 15 min of 16 hr incubation with 1 mM galectin-9. Fluorescence generated by PI is measured by FACS. Untreated cells were used as a negative control group, formalin-fixed cells as a 100% dead cell group, and H2O2 (hydrogen peroxide solution)-treated cells as a positive control group, respectively.

[3] = system: normal lymphocytes; conditions: Normal Lymphocyte; 16 hr incubation with 1 mM galectin-9; PI, FACS
Method: as §7

[4] = system: K-562 leukemic cells; conditions: 16 hr incubation with 1 mM galectin-9, PI, FACS
Method: as §7

[5] = system: CD4 T Cell; experiment: Apoptosis induction in non-activated normal CD4 T cells (Table 4); assay type: cell-based; conditions: 1 μM galectin-9, 1 μM galectin-3
Method: For example, measurements of apoptosis induction in the presence of 1 μM galectin-9 are as shown in Table 4 below (also 1 μM for galectin-3 in Table 4).

[6] = system: MOLT-4 cells; experiment: Apoptosis analysis with Annexin V-PI in MOLT-4 cells; assay type: cell-based, human; conditions: 1 μM Gal-9; FIG. 1B; control 13.2%
Method: MEBCYTO (registered trademark) Apoptosis kit (MBL, Nagoya, Japan) was used for apoptosis analysis with Annexin V-PI. Experiments were carried out according to the manufacturer's instruction as follows. Briefly, cells that underwent apoptosis induction (2×10^5 cells/sample) were washed with PBS, and resuspended in the binding buffer. After adding Annexin V-FITC and 5 μL of PI (final concentration 5 μg/mL) in the kit to the cell suspension, cells were incubated for 15 min at room temperature in the dark. Analysis was conducted using flow cytometry (EPICS XL-MCL, CouHer, Miami, Fla., US).

[7] = system: MOLT-4 cells; experiment: Apoptosis analysis by PI method in MOLT-4 cells; assay type: cell-based, human
Method: MOLT-4 (T cell), Jurkat (T cell), BALL-1 (B cell), THP-1 (acute monocytic leukemia derived cell), and HL60 (acute promyelotic leukemia derived cell) cells were obtained from American Type Culture Collection (ATCC). All the cell lines were maintained in an RPMI-1640 medium (Sigma, St. Louis, US) supplemented with 10% FCS in 5% Co2 at 37° C. Lactose (30 mM) was added to the culture medium to inhibit Gal-9 activity. The same concentration of sucrose was used as a control.
Cells that underwent apoptosis induction were centrifuged at 4° C. for 5 min at 1,000 rpm, and the cell pellet was resuspended in PBS (300 μL), and adjusted to a final concentration of 70% by gradually adding 100% cold ethanol (700 μL) to the suspended cells with vortexing. Cells were fixed by incubation at 4° C. for 30 min, and centrifuged at 4° C. for 5 min at 1,000 rpm after adding PBS (1 mL), and the cell pellet was resuspended in PBS (440 μL). Cells were incubated with ribonuclease A (10 μL; the final concentration 50 μg/mL, Sigma, St. Louis, Mo., US) at 37° C. for 30 min, and with 2.5 mg/mL propidium iodide (4 μL; the final concentration of PI 20 μg/mL, Sigma) at 4° C. for 10 min in the dark. Stained cells were analyzed by flow cytometry (Sandstrom, K. et al., J Immunol Methods, 240: 55 (2000) and Zhang L. et al., Cancer Lett, 142: 129 (1999)) after removing aggregated cells through a nylon mesh and increasing the cell volume with PBS.
(3) Cultured Cell Lines Were Incubated With rGal-9 for the Appropriate Length of Time, 24 hr for Instance. Apoptosis Analysis was Conducted by the Above-Described PI Method (1).
Apoptotic activity was measured by the PI method. When cells are incubated with galectin-9, washed, then subjected to alcohol-fixation, and fragmented DNAs flow out of the cell. Subsequently, incubation with PI leads to a reduction in the fluorescence intensity of apoptotic cells. Apoptosis was examined by the percentage of the cells wherein their fluorescence intensity was reduced. […] This induction was at the same level as H2O2 (hydrogen peroxide solution) that was used as a positive control. In addition, the same results were obtained by another method for examining apoptosis, TUNEL assay.

[8] = system: CD8+ T cells; experiment: Apoptosis induction in peripheral blood CD8+ T cells, resting or anti-CD3 Ab-activated; assay type: cell-based, human; conditions: galectin (+), 1 μM rGal-9
Method: as §1, §2, §3, §4, §5, §6

[9] = CD3 (+) cells activated on anti-CD3 Ab-coated plates
[10] = CD3 (−) untreated resting cells

Substance: Galectin-9: Recombinant human galectin-9 expressed in E. coli and purified on lactose-agarose
- apoptosis induction, CD4 [1, 9]: 41.7
- apoptosis induction, CD4 [1, 10]: 10.8
- cytotoxicity, 16 hours [2]: 46.2
- cytotoxicity, 16 hours [3]: 2.47
- cytotoxicity, 16 hours [4]: 23.4
- apoptosis induction, CD4 T Cell Resting [5]: 1.8
- cells that underwent apoptosis, detectable by Annexin V staining [6]: 69.1%
- apoptosis induction, Gal9 (+) ([7]; MOLT4, incubation with galectin-9 at least 48 hr or more): 34.5
- apoptosis induction, time and dose dependence ([7]; PI method): time-dependent and dose-dependent
- apoptosis induction ([7]; rGal-9 1 μM, 24 hr, FIG. 3): induced
- PI-stained cells, which underwent apoptosis ([7]; rGal-9 1 μM, PI method, FIG. 1A, PBS control 14.8%): 34.5%
- apoptosis induction, CD8 [8, 9]: 25.7
- apoptosis induction, CD8 [8, 10]: 17.8
